Our source for the TGI and GI50 values is PubChem BioAssay (NCI).

What all share (test): NCI tumour cell line growth inhibition, 48 h
The subject of assay [1] is HCT-116 colon.
Assay [2] has as its system OVCAR-4 ovarian.
The test system of assay [3] is IGROV1 ovarian.
The subject of assay [4] is MOLT-4 leukemia.
In assay [5] the test system is PC-3 prostate.
Assay [6] relates to SK-MEL-2 melanoma.
Assay [7] relates to NCI-H23 lung.
For assay [8], the system named is SR leukemia.
Assay [9] has as its system HL-60(TB) leukemia.
In assay [10] the test system is HS 578T breast.

Molecules are shown by their SMILES. Where “and” joins values, the source holds several entries; their conditions need not be identical. Equal values may be shown once.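 How tested: cells in 96-well plates exposed to compound for 48 hours at five concentrations. GI50: concentration for 50% inhibition of growth. TGI: total growth inhibition.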

`C[C@H]1/C(=C/C(=O)OCCN(C)C)CC[C@H]2[C@H]1C(=O)C[C@H]1C(C)(C)[C@@H](O)CC[C@]21C`: the TGI in assay [1], in [2], in assay [3], in [4], in assay [5] and in [6] was above 100 µM each time. Moreover, the TGI in assay [7], in assay [8], in [9] and in [10] was above 100 µM throughout.
Consider `CCCCC(CCCCCC(CCCC)NCc1ccc2c(c1)OCO2)NCc1ccc2c(c1)OCO2` (stereo not drawn), for which the GI50 in assay [1] is 0.194 µM; in [2], 1.46 µM; in [3], 0.887 µM; in [4], 0.262 µM; in [5], 1.01 µM; in [6] it was 0.336 µM. In addition, the GI50 in assay [7] was 1.32 µM; in assay [8] it was 0.215 µM; in assay [9], 0.458 µM; in assay [10], 0.977 µM. In addition, the TGI in [1] was determined as 0.369 µM; in [2], 2.81 µM; in assay [3], 2.22 µM; in assay [4], 0.653 µM; in assay [5], 2.53 µM; in assay [6] it was 0.835 µM. Moreover, the TGI in [7] is 2.71 µM; in assay [8], 0.495 µM; in [9], 1.21 µM; in assay [10], 2.92 µM.
On to `O=C1/C=C/[C@@H](O)[C@@H]2C[C@@H](O)C[C@H]2/C=C/CCC[C@H](CCc2cccc3ccccc23)O1`, for which the GI50 is 0.12 µM in assay [1]; 0.0525 µM in assay [2]; 0.267 µM in [3]; 0.105 µM in assay [4]; 0.065 µM in [5]; 0.175 µM in assay [6]. Moreover, the GI50 in assay [7] was 0.0637 µM; in assay [8], 0.0353 µM; in assay [9], 0.0923 µM; in [10] it was 0.779 µM. For the same compound, the TGI in [1] came to 0.283 µM; in assay [2], 3.82 µM; in [3] it was 12.1 µM; in assay [4], 2.61 µM; in assay [5] it was 12 µM; in [6], 0.521 µM. In addition, the TGI in assay [7] was 1.9 µM; in assay [8], 1.33 µM; in assay [9] it was 0.366 µM; in assay [10], above 49.2 µM.
As for `Cn1c(=O)c(Oc2ccc(F)cc2F)cc2cnc(NC(C)(C)CO)nc21`, the GI50 in assay [1], in assay [2], in assay [3], in assay [4], in [5] and in [6] was above 25 µM throughout. The GI50 in assay [7], in assay [8], in assay [9] and in assay [10] was above 25 µM in each case. The TGI in assay [1], in [2], in assay [3], in assay [4], in assay [5] and in assay [6] was above 25 µM throughout. The TGI in assay [7], in [8], in assay [9] and in assay [10] was above 25 µM in each case.
On to `O=C(Nc1ccc(Cc2ccccc2)cc1)Nc1nn(C(=O)Nc2ccc(Cc3ccccc3)cc2)c2ccccc12`, for which the GI50 in assay [1] was above 100 µM; in assay [2] it was above 100 µM; in [3], above 100 µM; in [4], 63.2 µM; in assay [5] it was above 100 µM; in assay [6], above 100 µM. Moreover, the GI50 is above 100 µM in assay [7], 16.3 µM in assay [8], above 100 µM in assay [9] and 74.2 µM in assay [10]. In addition, the TGI in assay [1], in assay [2], in assay [3], in assay [4], in assay [5] and in assay [6] was above 100 µM each time. For the same compound, the TGI in [7] is above 100 µM; in assay [8], 35.8 µM; in [9], above 100 µM; in assay [10], above 100 µM.
As for `Cc1c2ccn(O)cc2c(C)c2c1nc1ccccc12`, the TGI in assay [1] was 24.7 µM; in [2], above 100 µM; in assay [3], 55.8 µM; in assay [4], 16.8 µM; in [5] it was 30.2 µM; in assay [6] it was above 50 µM. Also, the TGI in assay [7] was 30.2 µM; in [8], 15.2 µM; in assay [9], 38.3 µM; in assay [10], 8.44 µM.
Take `COC1C(O)CC(OC2CC(OC3CC(O[C@@H]4C(=O)c5c(cc6cc(OC7CC(OC8CC(O)C(O)C(C)O8)C(O)C(C)O7)c(C)c(O)c6c5O)CC4[C@H](OC)C(=O)O)OC(C)C3O)OC(C)C2O)OC1C` (stereo partly drawn): the GI50 was 1.25 µM in assay [1]; 4.9 µM in [2]; 1.76 µM in assay [3]; 2.08 µM in assay [4]; 2.4 µM in [5]; 1.47 µM in [6]. Also, the GI50 in assay [7] was 1.63 µM; in assay [8], 0.922 µM; in [9], 5.53 µM; in assay [10], 1.93 µM. Further, the TGI in [1] was above 33.3 µM; in [2] it was above 33.3 µM; in assay [3] it was above 33.3 µM; in assay [4], above 33.3 µM; in assay [5] it was above 33.3 µM; in assay [6], 10.6 µM. The TGI is 17.2 µM in [7], above 33.3 µM in assay [8], above 33.3 µM in assay [9] and above 33.3 µM in assay [10].
Take `CN(CCCCCl)P(=O)(OCCS(=O)(=O)CC(NC(=O)CCC(N)C(=O)O)C(=O)NC(C(=O)O)c1ccccc1)OCC1OC(n2ccc(N)nc2=O)C(O)C1O` (stereo not drawn): the GI50 in assay [1] is 5.22 µM; in [2], 47.5 µM; in assay [3] it was 3.31 µM; in assay [4] it was 0.851 µM; in [5], 2.26 µM; in [6] it was above 75 µM. Moreover, the GI50 is 22.6 µM in assay [7], 1.39 µM in assay [8], 2.84 µM in assay [9] and above 36.8 µM in [10]. Besides, the TGI in assay [1] was above 75 µM; in [2] it was above 75 µM; in assay [3], above 47.3 µM; in assay [4] it was above 31.8 µM; in assay [5], above 75 µM; in assay [6], above 75 µM. In addition, the TGI in assay [7] is above 75 µM; in assay [8] it was above 51.2 µM; in [9], above 30.3 µM; in [10], above 75 µM.
As for `O=C1CSC(=S)N1c1ccco1`, the TGI in assay [1], in [2], in assay [3], in [4], in assay [5] and in [6] was above 100 µM throughout. Also, the TGI in assay [7], in assay [8], in [9] and in assay [10] was above 100 µM in each case.
In the case of `O=c1oc2ccc(I)cc2c(=O)n1-c1ccc(F)cc1F`, the GI50 in assay [1] is 2.14 µM; in assay [2] it was 2.07 µM; in [3] it was 2.07 µM; in assay [4], 2.39 µM; in assay [5], 2.24 µM; in [6] it was 2.15 µM. The GI50 in [7] is 2.14 µM; in [8] it was 3.02 µM; in [9] it was 2.04 µM; in assay [10], 2.04 µM. In addition, the TGI is 5.2 µM in assay [1]; 8.97 µM in [2]; 33.2 µM in [3]; 6.88 µM in [4]; 6.94 µM in assay [5]; 5.73 µM in assay [6]. Also, the TGI is 7.94 µM in [7], above 100 µM in assay [8], 5.12 µM in assay [9] and 6.55 µM in [10].
For the compound `CC1=CC(C)=NN=C(N)N1S(=O)(=O)c1cc(C)c(Cl)cc1SCc1ccccc1`, the GI50 is 7.2 µM in assay [1]; 11.5 µM in assay [2]; 46 µM in assay [3]; 6.18 µM in assay [4]; 6.15 µM in assay [5]; 37.2 µM in assay [6]. Besides, the GI50 in assay [7] was 14.2 µM; in assay [8], 16.5 µM; in assay [9], 6.75 µM; in assay [10], above 100 µM. In addition, the TGI in assay [1], in assay [2], in assay [3], in assay [4], in [5] and in [6] was above 100 µM throughout. Besides, the TGI in assay [7], in assay [8], in assay [9] and in [10] was above 100 µM throughout.
With `CCCCN1CCCC[C@@H]1C(=O)N[C@H](C(=O)N(C)[C@H](C[C@@H](OC(C)=O)c1nc(C(=O)NC2CCC(C(=O)OC)CC2)cs1)C(C)C)C(C)C` (stereo partly drawn), the GI50 was 1 µM in assay [1]; 3.95 µM in assay [2]; 1.88 µM in [3]; 1.18 µM in [4]; 1.41 µM in [5]; 5.28 µM in assay [6]. Besides, the GI50 in assay [7] is 1.5 µM; in assay [8], 0.242 µM; in assay [9] it was 0.732 µM; in [10], 1.96 µM. The TGI in assay [1], in assay [2], in [3], in assay [4], in assay [5] and in assay [6] was above 25 µM each time. Also, the TGI in assay [7] was above 25 µM; in assay [8], above 25 µM; in [9] it was 2.17 µM; in [10], above 25 µM.
As for `COc1ccc(C#Cc2ccc(=O)oc2-c2cc(OC)c(OC)c(OC)c2)cc1O`, the GI50 in assay [1] was 3.28 µM; in assay [2], 20.3 µM; in assay [3], 1.02 µM; in [4] it was 6.3 µM; in assay [5], 8.22 µM; in [6] it was 6.74 µM. The GI50 in assay [7] is 10.7 µM; in assay [8] it was 0.225 µM; in assay [9], 2.13 µM; in assay [10], 7.4 µM. The TGI in [1] is above 100 µM; in assay [2], above 100 µM; in [3], 6.75 µM; in assay [4], above 100 µM; in assay [5], above 100 µM; in [6], above 100 µM. In addition, the TGI in assay [7] was above 100 µM; in assay [8] it was 18.7 µM; in [9] it was 17.4 µM; in [10], above 81.9 µM.
For `CCN(CC)CCCC(C)Nc1ccnc2cc(Cl)ccc12` (stereo not drawn), the GI50 in assay [1] is 25.6 µM; in assay [2], above 100 µM; in [3] it was above 100 µM; in assay [4] it was 62.9 µM; in assay [5] it was 98.4 µM; in assay [6], above 100 µM. The GI50 in [9] is 36.1 µM; in assay [10] it was above 100 µM. The TGI in assay [1] was > 100 µM and 42 µM; in [2] it was above 100 µM; in assay [3], above 100 µM; in assay [4], > 100 µM and 50 µM; in assay [5] it was above 100 µM; in assay [6], > 100 µM and 14.9 µM. The TGI in assay [7] was above 100 µM; in assay [8], 66.2 µM; in [9], > 100 µM and 34.2 µM; in [10], above 100 µM.
